Data reported in ChEMBL document CHEMBL1201862, “PubChem BioAssay data set” (2004).
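Dose response: 5 concentrations. Exposure: 48 h. Format: 96-well plates. Endpoint: linear interpolation; highest concentration if not reached. GI50 marks 50% less growth.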 Calls of active or inactive are those of the source. Cut-off read from the data, not from the text of the source: active = GI50 up to about 1.1 µM and inactive = higher.

Experiments:
Assay in all cases: NCI anticancer screen, dose series, 48 h
LXFL 529 = tested on: LXFL 529
HOP-62 = tested on: HOP-62
K562 = tested on: K562
HL-60 = tested on: HL-60
ACHN = tested on: ACHN
OVCAR-5 = tested on: OVCAR-5
KM12 = tested on: KM12
HT-29 = tested on: HT-29
M14 = tested on: M14
Malme-3M = tested on: Malme-3M
CCRF-CEM = tested on: CCRF-CEM
OVCAR-8 = tested on: OVCAR-8
SF-539 = tested on: SF-539
EKVX = tested on: EKVX
CAKI-1 = tested on: CAKI-1

SMILES | GI50 (LXFL 529) | GI50 (HOP-62) | GI50 (K562) | GI50 (HL-60) | GI50 (ACHN) | GI50 (OVCAR-5) | GI50 (KM12) | GI50 (HT-29) | GI50 (M14) | GI50 (Malme-3M) | GI50 (CCRF-CEM) | GI50 (OVCAR-8) | GI50 (SF-539) | GI50 (EKVX) | GI50 (CAKI-1)
CCOc1ccc(NC(=O)CC2Sc3ccccc3NC2=O)cc1 (centres undefined) | > 100 µM (inactive) | 44.9 µM (inactive) | 65.2 µM (inactive) | > 100 µM (inactive) | 49.8 µM (inactive) | > 100 µM (inactive) | 28.3 µM (inactive) | 85.5 µM (inactive) | > 100 µM (inactive) | 97.5 µM (inactive) | > 100 µM (inactive) | 21.1 µM (inactive) | 45.3 µM (inactive) | > 100 µM (inactive) | 89.9 µM (inactive)
CC(C)=CCC/C(C)=C/CC/C(C)=C/CCC1(C)CCC([C@H](C)C(=O)O)OO1.CC1=C(CC/C(C)=C/CCC2(C)CCC([C@H](C)C(=O)O)OO2)C(C)(C)CCC1 (some centres undefined) | > 100 µM (inactive) | > 100 µM (inactive) |  | > 100 µM (inactive) | > 100 µM (inactive) | > 100 µM (inactive) | > 100 µM (inactive) | > 100 µM (inactive) | > 100 µM (inactive) | > 100 µM (inactive) |  | > 100 µM (inactive) | > 100 µM (inactive) | > 100 µM (inactive) | > 100 µM (inactive)
CC(=O)Oc1ccc(CO)cc1OC(C)=O | > 100 µM (inactive) | > 100 µM (inactive) | 57.8 µM (inactive) | 24.5 µM (inactive) | > 100 µM (inactive) | > 100 µM (inactive) | > 100 µM (inactive) | > 100 µM (inactive) | > 100 µM (inactive) | > 100 µM (inactive) | 27.6 µM (inactive) | > 100 µM (inactive) |  | 32.2 µM (inactive) | > 100 µM (inactive)
CCC1=CCN(c2cc(C)ccn2)OC1c1ccccc1 (centres undefined) | 27 µM (inactive) | > 100 µM (inactive) | 47.4 µM (inactive) | 18.3 µM (inactive) | 45.5 µM (inactive) | > 100 µM (inactive) | 30.9 µM (inactive) | 29.3 µM (inactive) | 31.3 µM (inactive) | 26.5 µM (inactive) | 35.7 µM (inactive) | 53.1 µM (inactive) | > 100 µM (inactive) | 56.4 µM (inactive) | 66.1 µM (inactive)
CC(N)Cc1ccc(F)cc1 (centres undefined) | > 100 µM (inactive) | > 100 µM (inactive) | > 100 µM (inactive) | > 100 µM (inactive) | > 100 µM (inactive) | > 100 µM (inactive) | > 100 µM (inactive) | > 100 µM (inactive) | > 100 µM (inactive) | > 100 µM (inactive) | > 100 µM (inactive) | > 100 µM (inactive) | > 100 µM (inactive) | > 100 µM (inactive) | > 100 µM (inactive)
CSc1nc(NC2OC(COC(C)=O)C(OC(C)=O)C(OC(C)=O)C2OC(C)=O)c2c(n1)OCC2=O (centres undefined) | > 100 µM (inactive) | > 100 µM (inactive) | > 100 µM (inactive) | > 100 µM (inactive) | > 100 µM (inactive) | > 100 µM (inactive) | > 100 µM (inactive) | > 100 µM (inactive) | > 100 µM (inactive) | > 100 µM (inactive) | > 100 µM (inactive) | > 100 µM (inactive) | > 100 µM (inactive) |  | > 100 µM (inactive)
Cc1ccc(C2=Nc3ccccc3NC(=O)C2)cc1 | > 100 µM (inactive) | > 100 µM (inactive) | > 100 µM (inactive) | 51.2 µM (inactive) | > 100 µM (inactive) | > 100 µM (inactive) | > 100 µM (inactive) | > 100 µM (inactive) | > 100 µM (inactive) | > 100 µM (inactive) | 38 µM (inactive) | 79.8 µM (inactive) | > 100 µM (inactive) | > 100 µM (inactive) | > 100 µM (inactive)
CC1OC(n2cc(F)c(=O)[nH]c2=O)C=CC1=O (centres undefined) | 16.6 µM (inactive) | 38.8 µM (inactive) | 31 µM (inactive) | 17.9 µM (inactive) | 18 µM (inactive) | 16 µM (inactive) | 17.7 µM (inactive) | 23 µM (inactive) | 17.5 µM (inactive) | 18.7 µM (inactive) | 13.8 µM (inactive) | 20.7 µM (inactive) | 16.4 µM (inactive) |  | 14.5 µM (inactive)
OC1(C23CC4CC(CC(C4)C2)C3)CSCC1(O)C12CC3CC(CC(C3)C1)C2 (centres undefined) | > 100 µM (inactive) | > 100 µM (inactive) | > 100 µM (inactive) | > 10 µM (inactive) |  |  | > 100 µM (inactive) | > 100 µM (inactive) | > 100 µM (inactive) | > 100 µM (inactive) | > 10 µM (inactive) | > 100 µM (inactive) | > 100 µM (inactive) | > 100 µM (inactive) | > 100 µM (inactive)
CO/N=C/c1cc(OC)c(OC)c(OC)c1 | > 100 µM (inactive) | > 100 µM (inactive) | > 100 µM (inactive) | > 100 µM (inactive) | > 100 µM (inactive) | > 100 µM (inactive) | > 100 µM (inactive) | > 100 µM (inactive) | > 100 µM (inactive) | > 100 µM (inactive) | > 100 µM (inactive) | > 100 µM (inactive) | > 100 µM (inactive) | > 100 µM (inactive) | > 100 µM (inactive)
CCOC(=O)[C@H](Cc1ccccc1)NC(=O)c1nc[nH]c1[N+](=O)[O-] | > 100 µM (inactive) | > 100 µM (inactive) | > 100 µM (inactive) | > 100 µM (inactive) | > 100 µM (inactive) |  | > 100 µM (inactive) | > 100 µM (inactive) | > 100 µM (inactive) | > 100 µM (inactive) | > 100 µM (inactive) | > 100 µM (inactive) | > 100 µM (inactive) | > 100 µM (inactive) | > 100 µM (inactive)
C=CC1[C@H]2COC(C)(C)O[C@@H]2CC(=O)C1(C)C (some centres undefined) | > 100 µM (inactive) | > 100 µM (inactive) |  | > 100 µM (inactive) | 94 µM (inactive) | > 100 µM (inactive) | > 100 µM (inactive) | > 100 µM (inactive) | > 100 µM (inactive) | > 100 µM (inactive) |  | > 100 µM (inactive) | > 100 µM (inactive) | 54.2 µM (inactive) | > 100 µM (inactive)
CC1CC2OC(=O)CC2C[C@@H]1O[Si](C)(C)C(C)(C)C (some centres undefined) | 68.7 µM (inactive) | 48.9 µM (inactive) | 36.1 µM (inactive) | 20.6 µM (inactive) | 43.9 µM (inactive) | > 100 µM (inactive) | 44.3 µM (inactive) | 40.5 µM (inactive) | 94.6 µM (inactive) | 65.3 µM (inactive) | 36.8 µM (inactive) | 81.5 µM (inactive) | > 100 µM (inactive) | > 100 µM (inactive) | 70.5 µM (inactive)
C[C@@H]1C[C@H]2[C@@H]3CCC4=CC(=O)C=C[C@]4(C)[C@@]3(F)[C@@H](O)C[C@]2(C)[C@@]1(O)C(=O)CO [DEXAMETHASONE] | > 100 µM (inactive) | > 100 µM (inactive) | > 100 µM (inactive) | > 100 µM (inactive) | > 100 µM (inactive) | > 100 µM (inactive) | > 100 µM (inactive) | > 100 µM (inactive) | > 100 µM (inactive) | > 100 µM (inactive) | 0.0239 µM (active) | > 100 µM (inactive) |  | 83.6 µM (inactive) | > 100 µM (inactive)
